Assay results taken from patent publication US20250325529A1, “INHIBITORS OF FATTY ACID BINDING PROTEINS (FABPs), METHODS OF USE AND METHODS OF MAKING” (Celloram, inc., priority 2024, published 2025).
Entries after “also recorded” stand apart in the source; their conditions may differ. Where two headings read alike, the source gives them in different places.

How the values were obtained:
[1] = Single dose IV and PO PK study in Han Wistar rats; type: in vivo
Method: C57BL/6 male mice or Han Wistar rats were used, n=3 for each administration route and compound. Single dose of each compound was administered orally (PO, 10 mg/Kg) or by intravenous administration (IV, 1 mg/Kg). Following intravenous and oral administration, blood samples (ca 0.2 mL) were collected and compound amount was measured by HLPC. For IV group, blood samples were collected at 0.083, 0.25, 0.5, 1, 2, 4, 6, 8, and 24 hours post-dose. For PO group, blood samples were collected at 0.25, 0.5, 1, 2, 4, 6, 8, and 24 hours post-dose.

[2] = tested on: Salmonella typhimurium tester strain TA98; experiment: Ames test (Bacterial Reverse Mutation Test), TA98; type: cell-based
Method: PD152 (compound 2) was tested for genotoxic and cytotoxic side effects by Ames test. The Ames test is a Bacterial Reverse Mutation Test of mutagenicity that utilizes Salmonella typhimurium tester strains TA98, TA100, TA1535, TA1537 and Escherichia coli tester strain WP2 uvrA (pKM101), both in the presence and absence of S9.
The compound PD152 was tested at 10 concentrations (0.032-1000 μg/plate) in the presence of, or absence of, the hepatic enzyme S9.
The aniline FABP4/5 inhibitor compound, 2-((2-((2,4-dichloro-5-isopropoxyphenyl)amino)-2-oxoethyl)thio)-2-methylpropanoic acid (compound “B104” as disclosed in WO2023043803A1) also was tested for genotoxic and cytotoxic side effects by Ames test. […]

PPARα = PPARα (Homo sapiens (Human), UniProt Q07869); experiment: Transcriptional activation assay in COS7 cells, PPARα; type: cell-based; conditions: PPRE luciferase reporter, PD151 and PD152 at 10 μM
Sequence of PPARα (Q07869 whole entry, species assumed): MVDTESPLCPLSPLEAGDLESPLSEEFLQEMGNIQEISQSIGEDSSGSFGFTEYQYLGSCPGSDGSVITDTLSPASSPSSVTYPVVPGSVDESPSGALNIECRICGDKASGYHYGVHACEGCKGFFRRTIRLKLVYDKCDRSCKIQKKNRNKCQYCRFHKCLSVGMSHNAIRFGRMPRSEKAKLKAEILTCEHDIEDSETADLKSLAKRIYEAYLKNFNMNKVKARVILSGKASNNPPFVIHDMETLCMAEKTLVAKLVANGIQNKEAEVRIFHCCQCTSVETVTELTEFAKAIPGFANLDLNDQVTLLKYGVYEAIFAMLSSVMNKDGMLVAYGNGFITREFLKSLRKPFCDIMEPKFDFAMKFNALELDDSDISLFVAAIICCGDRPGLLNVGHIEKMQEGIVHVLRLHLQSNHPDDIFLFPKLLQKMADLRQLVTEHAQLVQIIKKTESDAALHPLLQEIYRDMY
In short: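 COS-7 cells co-transfected with a 3×PPRE-luciferase reporter, receptor expression vector and β-galactosidase control plasmid; 18 h post-transfection, moved to serum-free medium and treated with compound for 18 h. Luciferase read from lysates, normalised to β-galactosidase activity.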

PPARγ = PPARγ (Homo sapiens (Human), UniProt P37231); experiment: Transcriptional activation assay in COS7 cells, PPARγ; type: cell-based; conditions: PPRE luciferase reporter, PD151 and PD152 at 10 μM
Sequence of PPARγ (P37231 whole entry, species assumed): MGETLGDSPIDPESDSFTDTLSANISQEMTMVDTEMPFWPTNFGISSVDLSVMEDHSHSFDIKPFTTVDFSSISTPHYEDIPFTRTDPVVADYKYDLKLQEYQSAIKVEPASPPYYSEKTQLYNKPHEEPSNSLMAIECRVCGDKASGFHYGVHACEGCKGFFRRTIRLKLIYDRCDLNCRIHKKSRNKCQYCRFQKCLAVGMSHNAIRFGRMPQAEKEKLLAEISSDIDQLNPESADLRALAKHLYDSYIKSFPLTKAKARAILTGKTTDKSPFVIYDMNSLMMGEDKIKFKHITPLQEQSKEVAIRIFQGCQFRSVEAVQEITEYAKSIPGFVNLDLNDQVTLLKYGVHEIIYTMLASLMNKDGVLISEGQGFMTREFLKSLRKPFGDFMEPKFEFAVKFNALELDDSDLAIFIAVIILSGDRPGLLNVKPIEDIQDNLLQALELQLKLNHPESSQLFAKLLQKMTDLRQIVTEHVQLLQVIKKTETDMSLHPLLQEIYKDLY
Method: COS-7 were cultured in 6-well plates and co-transfected with either a luciferase reporter driven by 3 copies of a PPRE and expression vector for either PPARδ, PPARα or PPARγ together with a vector harboring cDNA for β-galactosidase, serving as a transfection control. To test whether FABP4 or FABP5 mediate activation of their cognate receptors PPARγ and PPARδ, respectively, cells were also co-transfected with a plasmid harboring sequence of either FABP4 or FABP5. 18 h post-transfection, cells were placed in a serum-free medium and treated with agonist/compound. 18 h. later, cells were lysed, luciferase activity was assayed (Promega, WI, USA) and corrected for transfection efficiency by the activity of β-galactosidase.
Transcriptional activation assays were carried out utilizing COS7 cells as described above.

MB-231 xenograft tumors = experiment: TNBC MB-231 xenograft model; type: in vivo, Nu/Nu nude mice; conditions: oral 20 or 40 mg/Kg, 5 times a week
Method: Seven-week-old Nu/Nu athymic female mice were injected subcutaneously into the right flank with 5×10^6 MB-231 cells 1:1 with Matrigel. Once tumors reached ˜50 mm^3 in size, mice were divided into 3 groups (n=5 for each group) and treatment started. Mice were treated by gavage with either vehicle (0.5% methyl cellulose, 1% Tween 80), 20 mg/kg, or 40 mg/kg of PD152 dissolved in vehicle, 5 days a week. Thirty days after treatment started mice were scarified. Statistical significance between the different treatment groups was evaluated using a Student's t-test. The experiment was conducted after approval by the institutional animal care and use committee at Case Western Reserve University.
TNBC xenograft model was used to test the efficacy of PD152 in suppressing tumors growth in vivo. 5×10^6 MB-231 cells were subcutaneously injected into the right flank of Nu/Nu nude mice and tumor growth was monitored twice a week. Once tumors were established and reached volume of ˜50 mm^3, mice were divided into 3 groups and treatments started. Mice were treated orally by either PD152 (20 mg/Kg, or 40 mg/Kg), or a vehicle 5 times a week.

[3] = Tissue distribution in C57BL/6 male mice; type: in vivo, C57BL/6 mice; conditions: oral 10 mg/kg; for PK parameters / concentration at 0.5 h / concentration at 2 h / concentration at 4 h / concentration at 8 h / Kp: mice; for concentration at 0.5 h / concentration at 2 h / concentration at 4 h / concentration at 8 h / Kp: male, C57BL/6, mouse; for Kp: read-out: Tissue/Plasma ratio (Kp)
[4] = rat, plasma, intravenous 1 mg/kg
[5] = TA98, presence of S9, 0.0312 μg/plate
[6] = TA98, presence of S9, 0.1 μg/plate
[7] = TA98, presence of S9, 0.316 μg/plate
[8] = TA98, presence of S9, 1 μg/plate
[9] = TA98, presence of S9, 3.16 μg/plate
[10] = TA98, presence of S9, 10 μg/plate
[11] = TA98, presence of S9, 31.6 μg/plate
[12] = TA98, presence of S9, 100 μg/plate
[13] = TA98, presence of S9, 316 μg/plate
[14] = TA98, presence of S9, 1000 μg/plate
[15] = brain, read-out: Brain concentration
[16] = liver, read-out: Liver concentration
[17] = pancreas, read-out: Pancreas concentration
[18] = plasma, read-out: Plasma concentration
[19] = skeletal muscle, read-out: Skeletal muscle concentration
[20] = white adipose tissue, read-out: Adipose tissue concentration

Q: For `CC(C)Oc1nc(NC(=O)CSCC(=O)O)c(Cl)cc1Cl` [PD152, 2-((2-((3,5-dichloro-6-isopropoxypyridin-2-yl)amino)-2-oxoethyl)thio)acetic acid], which Thalf ([1]; oral 10 mg/kg) is on record?
A: Its Thalf is 1.13 h.

Q: What about the clearance [1, 4] of the same compound?
A: The clearance was 16 mL/min/kg.

Q: And the half-life [1, 4]?
A: Its half-life is about 43.8 min.

Q: And the bioavailability ([1]; rat, plasma, oral 10 mg/kg)?
A: Its bioavailability is 141%.

Q: What about the Fold increase [2, 5] of the same compound?
A: Its Fold increase is 1.

Q: And the “Mean number of revertants” value [2, 5]?
A: The value was 6.

Q: What about the Fold increase [2, 6] of the same compound?
A: Its Fold increase is 1.

Q: And the “Mean number of revertants” value [2, 6]?
A: Its value is 5.

Q: And the Fold increase [2, 7]?
A: The Fold increase was 1.

Q: And the “Mean number of revertants” value [2, 7]?
A: Its value is 6.

Q: And the Fold increase [2, 8]?
A: The Fold increase was 1.

Q: What about the “Mean number of revertants” value [2, 8] of the same compound?
A: The value was 6.

Q: What about the Fold increase [2, 9] of the same compound?
A: Its Fold increase is 1.

Q: And the “Mean number of revertants” value [2, 9]?
A: The value was 6.

Q: And the Fold increase [2, 10]?
A: Its Fold increase is 1.

Q: And the “Mean number of revertants” value [2, 10]?
A: Its value is 6.

Q: What about the Fold increase [2, 11] of the same compound?
A: The Fold increase was 1.

Q: What about the “Mean number of revertants” value [2, 11] of the same compound?
A: Its value is 6.

Q: And the Fold increase [2, 12]?
A: The Fold increase was 1.

Q: What about the “Mean number of revertants” value [2, 12] of the same compound?
A: Its value is 6.

Q: And the Fold increase [2, 13]?
A: Its Fold increase is 1.

Q: What about the “Mean number of revertants” value [2, 13] of the same compound?
A: Its value is 6.

Q: What about the Fold increase [2, 14] of the same compound?
A: The Fold increase was 1.

Q: And the “Mean number of revertants” value [2, 14]?
A: Its value is 5.

Q: And the “Activation of transcription by PPARα” value (PPARα)?
A: Its value is “None of these tested compounds activated; also recorded: none of the tested compounds PD151 and PD152 activated transcription”.

Q: What about the “Activation of transcription by PPARγ” value (PPARγ) of the same compound?
A: The value was “None of these tested compounds activated; also recorded: none of the tested compounds PD151 and PD152 activated transcription”.

Q: And the “Tumor growth (volume over time)” value (MB-231 xenograft tumors; 30 days)?
A: Its value is “growth was completely inhibited”.

Q: What about the “Tumor weight at end point” value (MB-231 xenograft tumors; day 30) of the same compound?
A: Its value is “significantly lower”.

Q: What about the PK parameters ([3]; Adipose tissue) of the same compound?
A: Its PK parameters is 6655.32 ng·h/g.

Q: What about the “Detection in the brain (blood-brain barrier crossing)” value ([3]; C57BL/6 male mice) of the same compound?
A: Its value is “Only traces”.

Q: What about the “Mean peak adipose tissue concentration” value ([3]; C57BL/6 male mice) of the same compound?
A: The value was 2109.6 ng/g.

Q: What about the “Mean peak liver concentration” value ([3]; C57BL/6 male mice) of the same compound?
A: The value was 3893.5 ng/g.

Q: And the “Mean peak pancreas concentration” value ([3]; C57BL/6 male mice)?
A: The value was 215.09 ng/g.

Q: And the “Mean peak plasma concentration” value ([3]; C57BL/6 male mice)?
A: The value was 3929.88 ng/mL.

Q: And the “Mean peak skeletal muscle concentration” value ([3]; C57BL/6 male mice)?
A: Its value is 139.45 ng/g.

Q: What about the PK parameters ([3]; Liver) of the same compound?
A: Its PK parameters is 6704.59 ng·h/g.

Q: And the PK parameters ([3]; Pancreas)?
A: Its PK parameters is 352.54 ng·h/g.

Q: What about the PK parameters ([3]; Skeletal Muscle) of the same compound?
A: Its PK parameters is 270.09 ng·h/g.

Q: What about the concentration at 0.5 h [3, 15] of the same compound?
A: The concentration at 0.5 h was 14.8 ng/g.

Q: What about the concentration at 2 h [3, 15] of the same compound?
A: The concentration at 2 h was 0 ng/g.

Q: What about the concentration at 4 h [3, 15] of the same compound?
A: The concentration at 4 h was 0 ng/g.

Q: And the concentration at 8 h [3, 15]?
A: The concentration at 8 h was 0 ng/g.

Q: What about the concentration at 0.5 h [3, 16] of the same compound?
A: The concentration at 0.5 h was 3890 ng/g.

Q: What about the concentration at 2 h [3, 16] of the same compound?
A: The concentration at 2 h was 419 ng/g.

Q: And the concentration at 4 h [3, 16]?
A: Its concentration at 4 h is 534 ng/g.

Q: And the concentration at 8 h [3, 16]?
A: Its concentration at 8 h is 238 ng/g.

Q: What about the concentration at 0.5 h [3, 17] of the same compound?
A: The concentration at 0.5 h was 215 ng/g.

Q: What about the concentration at 2 h [3, 17] of the same compound?
A: The concentration at 2 h was 28.2 ng/g.

Q: What about the concentration at 4 h [3, 17] of the same compound?
A: The concentration at 4 h was 20 ng/g.

Q: And the concentration at 8 h [3, 17]?
A: The concentration at 8 h was 14 ng/g.

Q: And the concentration at 0.5 h [3, 18]?
A: Its concentration at 0.5 h is 3930 ng/mL.

Q: What about the concentration at 2 h [3, 18] of the same compound?
A: The concentration at 2 h was 236 ng/mL.

Q: And the concentration at 4 h [3, 18]?
A: Its concentration at 4 h is 210 ng/mL.

Q: What about the concentration at 8 h [3, 18] of the same compound?
A: Its concentration at 8 h is 149 ng/mL.

Q: And the concentration at 0.5 h [3, 19]?
A: Its concentration at 0.5 h is 139 ng/g.

Q: And the concentration at 2 h [3, 19]?
A: The concentration at 2 h was 26.5 ng/g.

Q: What about the concentration at 4 h [3, 19] of the same compound?
A: The concentration at 4 h was 14 ng/g.

Q: And the concentration at 8 h [3, 19]?
A: Its concentration at 8 h is 21.1 ng/g.

Q: And the concentration at 0.5 h [3, 20]?
A: The concentration at 0.5 h was 2110 ng/g.

Q: And the concentration at 2 h [3, 20]?
A: The concentration at 2 h was 1020 ng/g.

Q: What about the concentration at 4 h [3, 20] of the same compound?
A: Its concentration at 4 h is 520 ng/g.

Q: What about the concentration at 8 h [3, 20] of the same compound?
A: Its concentration at 8 h is 596 ng/g.

Q: And the Kp ([3]; Adipose tissue)?
A: The Kp was 1.3.

Q: And the Kp ([3]; Liver)?
A: Its Kp is 1.3.

Q: What about the Kp ([3]; Pancreas) of the same compound?
A: The Kp was 0.07.

Q: And the Kp ([3]; Skeletal Muscle)?
A: Its Kp is 0.05.
